Data on three molecules can be found in article PMC6149971, “In Vivo and In Vitro Activities and ADME-Tox Profile of a Quinolizidine-Modified 4-Aminoquinoline: A Potent Anti-P. falciparum and Anti-P. vivax Blood-Stage Antimalarial” (Molecules : A Journal of Synthetic Chemistry and Natural …, 2017).

Structures are written as SMILES. Several values for one entry are separate records, joined by “and”; a condition that tells them apart may be missing. Equal values may be shown once.

For one data set, the target named is CYP2C9 (Homo sapiens, UniProt P11712). Description: in vitro.
A further data set concerns the target CYP3A4 (Homo sapiens, UniProt P08684). Description: in vitro.
The next data set relates to P. falciparum W-2 (CQ-R). The arrangement: method as in PMID 22901673. The conditions noted are these: 72 h incubation, pLDH method, mean of 3 experiments; data already published; cited from earlier work.
A short description of data set [1]: Pharmacokinetics in CD-1 mice after oral administration. The conditions noted are these: male, CD-1, mouse, in vivo, po, 10 mg/kg. The data set is classed as in vivo, mouse. The method, then: Samples from the pharmacokinetic studies were analyzed under the following conditions: UPLC interfaced with a Premiere XE triple Quadrupole, Waters. A gradient from 2 to 100% (Water, MeOH, 5 mM Ammonium Acetate) over 1.3 min was used in Acquity HSS T3 (dimensions 2.1 by 50 mm, 1.8 µm column, 40 °C temperature, flow rate 0.5 mL/min). Detection was performed in MRM (ESI positive, Q1/Q3 330.16/152.00, Cone Voltage 45 V; Extractor 5 V; Capillary 3.4 kV). The limit of detection was 1 ng/mL. Pharmacokinetic parameters were determined by Non-Compartmental Analysis, using the linear trapezoidal rule and uniform weight.
Pharmacokinetic data were collected in mice by testing the racemate and the enantiomers at the same single dose, and vehicle-utilized for in vivo studies (see composition in paragraph 4.4). Briefly, male CD-1 mice (Charles River Laboratories) weighing 18–22 g received single dose (10 mg/kg) oral administrations of the AM1 racemate and single enantiomers, each dissolved in SSV. For each experiment, twenty-four mice/dose and three mice/time-point were used. Blood samples were collected at eight selected time-points (15, 30 and 60 min; 2, 4, 6, 8 and 24 h) under ethyl ether anaesthesia. The heparinized tubes containing blood samples were immediately placed on ice and centrifuged, and the supernatant collected and frozen at −80 °C prior to analysis. Pharmacokinetic plasma samples (spiked with internal standard) were filtered (Sirocco filter plate, Waters) under vacuum, and 5 µL analysed by LC-MS/MS.

A further data set deals with CYP2C19 (Homo sapiens, UniProt P33261). Description: in vitro.
Another data set has as its target CYP2D6 (Homo sapiens, UniProt P10635). Description: in vitro.
A further data set has as its target T1, CYP1A2 (Homo sapiens, UniProt P05177).
T1 sequence (P05177 1-516): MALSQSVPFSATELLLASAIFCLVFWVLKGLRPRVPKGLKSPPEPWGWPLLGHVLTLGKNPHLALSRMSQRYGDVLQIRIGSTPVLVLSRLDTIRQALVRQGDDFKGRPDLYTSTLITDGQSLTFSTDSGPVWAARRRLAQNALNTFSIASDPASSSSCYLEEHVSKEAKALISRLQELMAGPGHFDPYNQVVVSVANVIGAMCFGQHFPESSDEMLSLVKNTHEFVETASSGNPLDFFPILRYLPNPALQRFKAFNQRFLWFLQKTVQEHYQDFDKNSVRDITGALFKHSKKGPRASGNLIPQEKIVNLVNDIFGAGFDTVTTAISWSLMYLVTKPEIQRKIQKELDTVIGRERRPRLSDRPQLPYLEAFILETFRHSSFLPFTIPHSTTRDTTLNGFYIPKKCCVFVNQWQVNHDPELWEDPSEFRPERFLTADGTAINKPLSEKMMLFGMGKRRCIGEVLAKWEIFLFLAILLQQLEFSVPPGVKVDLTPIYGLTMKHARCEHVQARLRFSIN
Description: in vitro.

A further data set concerns P. berghei ANKA. Description: Standard four-day suppressive test, P. berghei. The format is in vivo. The conditions noted are these: CD1 mice, oral, once a day for four days, parasitaemia on day 4. As to the method:
Groups of five CD1 mice were inoculated i.v. with 4 × 10^6 infected erythrocytes/mice. The compound, dissolved in standard suspending formula (SSV) (0.5% sodium carboxymethylcellulose, 0.5% benzyl alcohol, 0.4% Tween 80, 0.9% NaCl), was administered orally, once a day for a period of four days, starting two hours post-infection. […] Parasitaemia was determined by microscopic examination of Giemsa-stained blood films taken on day four, processed using MICROSOFT® EXCEL spreadsheets (Microsoft Corp., Redmond, WA, USA), and expressed as percentages of inhibition from the arithmetic mean parasitaemias of each group in relation to the untreated group. ED50 and ED90 values were calculated by GraphPad Prism 6 (GraphPad Software Inc, La Jolla, CA, USA).

A further data set concerns P. falciparum D10 (CQ-S). Further details: method as in PMID 22901673. The following applies: 72 h incubation, pLDH method, mean of 3 experiments; data already published; cited from earlier work.
For another data set, the system named is P. vivax field isolates. Description: In vitro assay against P. vivax field isolates. The format is cell-based. The conditions noted are these: Plasmodium vivax, read-out: P. vivax IC50, field isolates. The text has this:
Ten P. vivax isolates were collected from June to July 2010 from malaria patients attending the Shoklo Malaria Research Unit (SMRU) clinics, Mae Sot region of the Tak Province in north-western Thailand under the ethical guidelines in the approved protocol OXTREC 027-05 (Centre for Clinical Vaccinology and Tropical Medicine, University of Oxford, Oxford, UK). These samples were collected from patients with no prior antimalarial therapy and with microscopically confirmed P. vivax. After written consent, blood samples were collected by venepuncture in 5 mL volume lithium heparinized tubes, which were then transported to the laboratory at SMRU within 5 h of collection. The ten isolates were chosen for testing because the majority (>80%) of the parasites were at the mid trophozoite stage (around 20 h post invasion) and no schizonts were detected.

The nature of data set [2]: Maximum tolerated dose in CD1 mice. The following applies: CD1, mouse, in vivo, ip.
Data set [3] has as its system P. falciparum FCR1 (CQ-R). Description: In vitro chemosensitivity assay (pLDH), FCR1 strain. The data set is classed as cell-based. The following applies: Plasmodium falciparum, 72 h, read-out: P. falciparum IC50, FCR1.
In data set [4] the test system is P. falciparum FCR3 (CQ-R). Description: In vitro chemosensitivity assay (pLDH), FCR3 strain. The data set is classed as cell-based. The conditions noted are these: Plasmodium falciparum, FCR3, 72 h, read-out: P. falciparum IC50, FCR3.
Data set [5] relates to P. falciparum TM91C235 (multidrug-resistant). Description: In vitro chemosensitivity assay (pLDH), TM91C235 strain. The data set is classed as cell-based. The conditions noted are these: Plasmodium falciparum, 72 h, read-out: P. falciparum IC50, TM91C235.
The nature of data set [6]: Microsome stability and metabolism studies, mouse. The format is in vitro ADME. The arrangement: key: +: Metabolic Products Detected In Vitro and In Vivo; ND: Not detectable. The conditions noted are these: (−)-AM1 1 μM, at 30 min. The method, then: (§1) Samples from the metabolic stability and metabolism studies were analyzed under the following conditions: UPLC interfaced with a Premiere XE triple Quadrupole Waters for stability studies, and Bruker Daltonics Ion Trap HCT Ultra for metabolic studies. A gradient from 2% to 100% (Water, MeOH, 5 mM Ammonium Acetate) over 2 min (stability) or 12 min (metabolism) in a C18 BEH (dimensions 1 by 50 mm for stability and 2.1 by 100 mm for metabolism, 1.7 µm column, 45 °C temperature, flow rate 0.5 mL/min) was used. For stability studies, the detection was performed in MRM (ESI positive, Q1/Q3 330.16/152.00, Cone Voltage 45 V; Extractor 5 V; Capillary 3.4 kV), while for metabolism studies, analysis was performed in Auto MS/MS mode (ESI positive; Capillary 109 V; Dry Temp 350 °C; Nebulizer 30 psi; Dry gas 10 L/min; HV capillary 500 V; Mass Accu time 500 µs; Mass range MS scan 100–600 amu, MS/MS 50–450 amu).
(§2) For stability and metabolism studies, test compounds were dissolved in DMSO, diluted at the final concentration of 1 µM, and pre-incubated in duplicate for 10 min at 37 °C in potassium phosphate buffer, pH 7.4, 3 mM MgCl2, with rat, mouse, and human hepatic microsomes (Xenotech Europe, Pfungstadt, Germany) at the final concentration of 0.5 mg/mL. The reaction was then started by adding the cofactor mixture of NADP, Glc6P, and G6P-DH, in the presence of UDPGA 1 mM in human microsomes to promote glucuronide formation. Acetonitrile (with verapamil as internal standard) was added to the samples at the times time 0 and 30 min to stop the reaction. Samples were then centrifuged and the supernatants analysed and quantified by LC-MS/MS. Reference compounds of known metabolic stability, 7-ethoxycoumarin (7-EC) and propranolol, were used as controls.
(§3) The percentage of the area of test compounds remaining after 30 min incubation was calculated in respect to the area of compounds at time = 0 min. […] Samples were re-analyzed by acquiring the daughter scan of the potential metabolites found during the full scan acquisition.

A short description of data set [7]: Microsome stability and metabolism studies, human. The conditions noted are these: (−)-AM1 1 μM, at 30 min. The format is in vitro ADME. Further details: key: +: Metabolic Products Detected In Vitro and In Vivo; ND: Not detectable. The method, then:
Samples from the metabolic stability and metabolism studies were analyzed under the following conditions: UPLC interfaced with a Premiere XE triple Quadrupole Waters for stability studies, and Bruker Daltonics Ion Trap HCT Ultra for metabolic studies. A gradient from 2% to 100% (Water, MeOH, 5 mM Ammonium Acetate) over 2 min (stability) or 12 min (metabolism) in a C18 BEH (dimensions 1 by 50 mm for stability and 2.1 by 100 mm for metabolism, 1.7 µm column, 45 °C temperature, flow rate 0.5 mL/min) was used. […]
For stability and metabolism studies, test compounds were dissolved in DMSO, diluted at the final concentration of 1 µM, and pre-incubated in duplicate for 10 min at 37 °C in potassium phosphate buffer, pH 7.4, 3 mM MgCl2, with rat, mouse, and human hepatic microsomes (Xenotech Europe, Pfungstadt, Germany) at the final concentration of 0.5 mg/mL. […] Samples were then centrifuged and the supernatants analysed and quantified by LC-MS/MS. […]
as §3

The nature of data set [8]: Microsome stability and metabolism studies, rat. The data set is classed as in vitro ADME. Further details: key: +: Metabolic Products Detected In Vitro and In Vivo; ND: Not detectable. The conditions noted are these: (−)-AM1 1 μM, at 30 min. The method, then:
as §1, §2, §3

What is called inhibition is the relative decrease from the control value, in per cent. In general, IC50 refers to the concentration needed to halve the response being measured. Broadly, the AUC(0-t) is the area under the concentration-time curve up to a stated or last time point. As usually defined, the Cmax is the peak of the concentration-time curve. One may read the MRT last as the average time that molecules of a dose stay in the body. One may read the Tmax as the time at which the peak concentration occurs. The ED50 is the dose that gives a 50% effect, or the effect in half of the subjects. For orientation: MTD means the largest dose that counted as tolerated.

Chain of CYP2C19 (P33261 whole entry): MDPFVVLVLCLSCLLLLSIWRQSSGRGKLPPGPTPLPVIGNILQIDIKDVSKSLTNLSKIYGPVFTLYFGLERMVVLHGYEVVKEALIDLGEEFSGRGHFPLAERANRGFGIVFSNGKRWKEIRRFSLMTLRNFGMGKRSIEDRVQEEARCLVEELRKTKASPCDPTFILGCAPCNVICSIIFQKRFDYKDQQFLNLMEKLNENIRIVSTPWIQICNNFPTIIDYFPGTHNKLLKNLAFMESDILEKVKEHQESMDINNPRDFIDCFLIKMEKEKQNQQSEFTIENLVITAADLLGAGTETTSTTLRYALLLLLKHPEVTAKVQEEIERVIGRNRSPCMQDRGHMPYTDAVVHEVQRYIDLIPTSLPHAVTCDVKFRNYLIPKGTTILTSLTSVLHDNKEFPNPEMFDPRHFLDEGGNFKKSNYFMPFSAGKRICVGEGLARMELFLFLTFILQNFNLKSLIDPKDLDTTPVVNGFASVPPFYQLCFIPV
Chain of CYP2C9 (P11712 whole entry): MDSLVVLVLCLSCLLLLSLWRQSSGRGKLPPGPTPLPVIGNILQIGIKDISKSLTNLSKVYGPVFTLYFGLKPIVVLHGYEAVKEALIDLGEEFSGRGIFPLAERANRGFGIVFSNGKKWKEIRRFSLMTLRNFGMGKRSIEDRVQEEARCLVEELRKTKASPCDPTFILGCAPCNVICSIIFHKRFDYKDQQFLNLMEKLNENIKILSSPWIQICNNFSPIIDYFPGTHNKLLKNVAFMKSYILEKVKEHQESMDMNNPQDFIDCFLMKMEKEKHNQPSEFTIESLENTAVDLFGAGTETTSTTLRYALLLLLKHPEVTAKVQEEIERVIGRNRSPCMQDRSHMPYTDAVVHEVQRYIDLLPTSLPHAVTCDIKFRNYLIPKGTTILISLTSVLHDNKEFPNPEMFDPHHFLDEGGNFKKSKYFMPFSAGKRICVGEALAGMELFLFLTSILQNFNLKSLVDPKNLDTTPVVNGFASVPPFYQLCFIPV
Chain of CYP2D6 (P10635 whole entry): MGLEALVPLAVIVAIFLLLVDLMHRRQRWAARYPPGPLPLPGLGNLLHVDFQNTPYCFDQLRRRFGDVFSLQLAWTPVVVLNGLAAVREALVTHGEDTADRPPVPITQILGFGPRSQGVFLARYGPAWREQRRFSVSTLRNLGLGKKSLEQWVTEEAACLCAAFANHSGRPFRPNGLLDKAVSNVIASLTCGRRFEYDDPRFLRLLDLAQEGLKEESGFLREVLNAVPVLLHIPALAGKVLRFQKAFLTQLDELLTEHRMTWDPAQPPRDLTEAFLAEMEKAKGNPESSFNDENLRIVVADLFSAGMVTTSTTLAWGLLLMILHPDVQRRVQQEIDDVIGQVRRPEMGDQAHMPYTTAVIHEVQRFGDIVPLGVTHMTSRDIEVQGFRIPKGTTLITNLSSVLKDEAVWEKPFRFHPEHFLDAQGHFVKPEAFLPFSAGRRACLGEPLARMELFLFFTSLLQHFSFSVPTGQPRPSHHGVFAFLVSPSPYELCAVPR
Chain of CYP3A4 (P08684 whole entry): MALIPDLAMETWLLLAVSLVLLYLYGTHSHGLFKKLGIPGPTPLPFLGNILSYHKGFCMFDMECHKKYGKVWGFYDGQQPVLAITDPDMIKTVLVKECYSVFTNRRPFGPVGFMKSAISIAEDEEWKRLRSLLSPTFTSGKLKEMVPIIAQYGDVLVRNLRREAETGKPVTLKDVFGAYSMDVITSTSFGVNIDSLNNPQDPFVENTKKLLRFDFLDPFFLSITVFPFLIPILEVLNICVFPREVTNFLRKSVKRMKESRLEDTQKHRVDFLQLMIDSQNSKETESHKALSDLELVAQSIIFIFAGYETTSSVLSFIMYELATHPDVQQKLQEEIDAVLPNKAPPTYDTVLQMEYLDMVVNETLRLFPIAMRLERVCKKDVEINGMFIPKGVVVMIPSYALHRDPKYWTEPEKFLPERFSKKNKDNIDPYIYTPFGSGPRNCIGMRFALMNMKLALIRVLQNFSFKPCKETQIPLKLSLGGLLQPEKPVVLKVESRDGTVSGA

As for `Clc1ccc2c(NC[C@H]3CCCN4CCCC[C@@H]34)ccnc2c1` [(+)-AM1, 7-chloro-N-(((1R,9aS)-octahydro-1H-quinolizin-1-yl)methyl)quinolin-4-amine], the inhibition at 3 µM on CYP2C9 came to 11.1 ± 0.5%; at CYP3A4 it was 14.3 ± 1.9%; against CYP2C19 it was 9 ± 1.1%; against CYP2D6, 62.2 ± 1%; against CYP1A2, 8.3 ± 0.8%. Also, the IC50 was 0.0358 µM in the data set with P. falciparum W-2 (CQ-R) and 0.0175 µM with P. falciparum D10 (CQ-S). In addition, the AUC(0-t) in data set [1] is 0.382 µM·h and 126 ng·h/mL. Besides, the Cmax in data set [1] was 108 nM and 35.5 ng/mL. The molecule also gave an MRT last in [1] of 2.7 h. Besides, the Tmax in data set [1] was 2 h. Further, the “P. berghei ED90 (95% CI)” value in the data set with P. berghei ANKA is recorded as 2.03 (1.46–2.60) mg/kg. Moreover, in the data set on P. berghei ANKA (Plasmodium berghei, 96 h, read-out: P. berghei ED50 (95% CI)), the ED50 is 1.6 mg/kg.

Consider `CCN(CC)CCCC(C)Nc1ccnc2cc(Cl)ccc12` (centres unmarked) [CQ, chloroquine, reference compound], for which the IC50 is 0.0867 µM in the data set on P. vivax field isolates; 0.438 µM with P. falciparum W-2 (CQ-R); 0.182 µM in data set [3]; 0.113 µM in data set [4]; 0.199 µM in data set [5]; 0.0237 µM in the data set on P. falciparum D10 (CQ-S). The MTD in data set [2] came out at 50 mg/kg.

For `O=C(Nc1ccnc2cc(Cl)ccc12)[C@@H]1CCCN2CCCC[C@H]12` [C00002], the “Metabolic products detected, in vitro microsomes, mouse” value in data set [6] is on record as “+”. In addition, the “Metabolic products detected, in vitro microsomes, human” value in data set [7] is on record as “+”. The “Metabolic products detected, in vitro microsomes, rat” value in data set [8] is “+”.
